“And” between values parts separate entries of the source, which are not always exact repeats. Equal entries are not always repeated.
How the values were obtained:
[1] = system: receptors in Classes I and III; test: FET3-lacZ response of the human PAQR panel to 10 μM progesterone: Classes I and III; format: cell-based
Excerpt: (§1) Plasmids and primers. Human PAQRs were cloned into various vectors by PCR from commercially/publically available cDNAs. PAQRs were cloned into the pYES260 (Melcher, 2000), pRS316 (Liu et al., 1992) or pGREG536 (Jansen et al., 2005) expression vectors using gap repair. The pJK90 plasmid containing a Dual Topology Reporter (DTR)-tagged OST4 gene driven by the constitutive TPI1 promoter was kindly provided by Dr. Gunnar von Heijne (Stockholm University) (Kim et al., 2003). The OST4 open reading frame in pJK90 was replaced with the PAQR6 and mPRα open reading frames by gap repair. Primers for all cloning reactions are listed herein. Proteins expressed in pYES260 have an N-terminal 6×-histidine tag followed by a TEV protease cleavage site. Proteins expressed in pGREG536 have an N-terminal 7×-HA tag. Proteins expressed in the pRS316 vector are untagged. The pYES260, pRS316 and pGREG536 vectors allow for galactose-inducible expression via the GAL1 promoter. […] The FET3-lacZ plasmid was previously described (Kupchak et al., 2007). […]
(§2) Assays and growth conditions. […] Cells were allowed to grow to mid-log phase at which time the activity of the FET3 gene was monitored using a FET3-lacZ promoter-reporter construct. lacZ activities are presented as a percentage of activity seen in untreated cells expressing the appropriate empty expression vector control. […]

PAQR6 = target: T1, PAQR6 (Homo sapiens, UniProt Q6TCH4); test: FET3-lacZ reporter repression in yeast expressing PAQR6; format: cell-based; settings: PAQR6, Table 3
T1 construct: expressed in transfected cells; host or cells: Saccharomyces cerevisiae BY4742, GAL1-driven pYES260 plasmid
T1 sequence (Q6TCH4 1-344): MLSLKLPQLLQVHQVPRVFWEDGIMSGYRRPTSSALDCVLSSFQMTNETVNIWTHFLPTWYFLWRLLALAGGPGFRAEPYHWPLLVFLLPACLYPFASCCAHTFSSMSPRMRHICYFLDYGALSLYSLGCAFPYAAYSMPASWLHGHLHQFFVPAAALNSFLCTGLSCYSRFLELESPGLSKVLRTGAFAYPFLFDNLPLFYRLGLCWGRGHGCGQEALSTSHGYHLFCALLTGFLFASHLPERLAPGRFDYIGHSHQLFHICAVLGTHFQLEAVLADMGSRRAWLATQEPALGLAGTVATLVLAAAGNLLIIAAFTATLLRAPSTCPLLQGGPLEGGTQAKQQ
Excerpt: as §1, §2

mPRα = target: T2, mPRα (Homo sapiens, UniProt Q86WK9); test: cell-based
T2 construct: Full length and truncated mPRγ and mPRα were expressed in wild type cells grown in 2% galactose from the pGREG536 vector; expressed in transfected cells; host or cells: Saccharomyces cerevisiae (BY4742 wild type; also gpa mutants), GAL1-driven plasmids (TPI1 promoter in pJK90)
T2 sequence (Q86WK9 1-346): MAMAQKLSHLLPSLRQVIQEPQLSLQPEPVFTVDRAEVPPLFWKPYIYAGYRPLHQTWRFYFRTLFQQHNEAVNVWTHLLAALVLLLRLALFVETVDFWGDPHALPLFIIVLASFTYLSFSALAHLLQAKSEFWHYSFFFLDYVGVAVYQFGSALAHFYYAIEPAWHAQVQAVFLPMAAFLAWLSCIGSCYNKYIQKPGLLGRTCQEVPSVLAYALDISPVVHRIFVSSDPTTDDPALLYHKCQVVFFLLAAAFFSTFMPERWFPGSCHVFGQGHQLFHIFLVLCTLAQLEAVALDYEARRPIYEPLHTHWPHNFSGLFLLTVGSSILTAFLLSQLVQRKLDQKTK
Excerpt: Plasmids and primers. Human PAQRs were cloned into various vectors by PCR from commercially/publically available cDNAs. […] The OST4 open reading frame in pJK90 was replaced with the PAQR6 and mPRα open reading frames by gap repair. Primers for all cloning reactions are listed herein. Proteins expressed in pYES260 have an N-terminal 6×-histidine tag followed by a TEV protease cleavage site. Proteins expressed in pGREG536 have an N-terminal 7×-HA tag. Proteins expressed in the pRS316 vector are untagged. The pYES260, pRS316 and pGREG536 vectors allow for galactose-inducible expression via the GAL1 promoter. […] A pRS316-based plasmid containing the STE2 gene under the control of the GAL1 promoter (Feng et al., 2000) was kindly provided by Dr. Nicholas G. Davis (Wayne State University).
Assays and growth conditions. Strains were maintained using standard protocol and grown in synthetic defined (SD) media with the appropriate amino acids to match the auxotrophies of the individual strains. […] In brief, overnights of cells grown in SD-glucose media were re-inoculated into iron-deficient LIM to induce the expression of FET3. […] All ligands were added to the growth medium upon re-inoculation into LIM. For experiments in which steroids were added as ligands, steroids were added from ethanol stocks and “untreated” controls are actually treated with an equal volume of ethanol to control for vehicle effects. […] All experiments were performed at least three times and a representative experiment is shown. EC50 values were obtained using the web-based BioDataFit software using sigmoidal curve-fitting. (web site changbioscience.com/stat/ec50.html)

Class II PAQRs = test: FET3-lacZ response of the human PAQR panel to 10 μM progesterone: Class II; format: cell-based
Excerpt: as §1, §2

mPRs = settings: determined by Thomas et al. (2008); read-out: Kd for progesterone binding to mPRs; cited from earlier work

In the case of `CC(=O)[C@H]1CC[C@H]2[C@@H]3CCC4=CC(=O)CC[C@]4(C)[C@H]3CC[C@]12C` [Progesterone, progesterone], the “agonist effect on receptors in Classes I and III” value [1] is reported as “ineffective”, the EC50 (PAQR6) is reported as 2.6 nM and the EC50 (mPRα; EC50, mPRα column of Table 4, ligand alone) is reported as 2.2 nM. For the same molecule, the EC50 (mPRα; EC50, mPRα, Table 3, iron deficient LIM, 0.05% galactose) was 2.3 nM and 1 to 3 nM, the “agonist effect on all five Class II PAQRs” value (Class II PAQRs) was “effective agonist” and the Kd (mPRs) was about 5 nM.
